Consider 1 molecule from publication PMC6934184, “Selective DNA-PKcs inhibition extends the therapeutic index of localized radiotherapy and chemotherapy” (The Journal of Clinical Investigation, 2019).

This test addresses T1, MAP3K8 (COT) (Homo sapiens, UniProt P41279).
T1 construct: purchased Thermo Fisher Scientific (Life Technologies) SelectScreen
In words: SelectScreen Z'LYTE. Conditions: ATP 100 µM. The format is biochemical. The method, boiled down: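 NU5455 was profiled across the SelectScreen Broad panel of kinase activity and binding assays. Z'LYTE reactions such as CSF1R ran at apparent Km ATP, while the Adapta CAMK1 assay used ATP listed as 10. Values are given as percent.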

Each structure is given as a SMILES string.

T1 sequence (P41279 whole entry): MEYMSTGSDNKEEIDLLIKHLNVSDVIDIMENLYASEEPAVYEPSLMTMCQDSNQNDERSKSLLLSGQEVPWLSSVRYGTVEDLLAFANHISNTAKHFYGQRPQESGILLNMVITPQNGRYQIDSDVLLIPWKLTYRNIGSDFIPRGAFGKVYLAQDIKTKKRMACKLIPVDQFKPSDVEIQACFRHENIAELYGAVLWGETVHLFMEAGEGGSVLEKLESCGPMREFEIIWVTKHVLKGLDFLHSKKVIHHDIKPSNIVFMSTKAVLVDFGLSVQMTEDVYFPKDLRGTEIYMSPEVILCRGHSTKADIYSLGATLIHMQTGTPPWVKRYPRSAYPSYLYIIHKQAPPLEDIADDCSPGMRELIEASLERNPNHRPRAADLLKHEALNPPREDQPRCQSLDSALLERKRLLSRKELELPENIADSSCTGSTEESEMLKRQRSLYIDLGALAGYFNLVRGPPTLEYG

Regarding `CN(C(=O)CN1CCOCC1)c1ccc2sc3c(-c4cccc5c(=O)cc(N6CC7CCC(C6)O7)oc45)cccc3c2c1` [NU5455], at 1 µM the inhibition was 3.5%.
